These results are taken from ChEMBL document CHEMBL1201862, “PubChem BioAssay data set” (2004).

The AC50 is the midpoint of the concentration-response curve, whichever way the signal moves. Broadly, the Ki is the dissociation constant of the complex between target and ligand, obtained from inhibition or displacement. As usually defined, the EC50 is the concentration at which the effect is half-maximal. Broadly, the IC50 is the point on the concentration scale where inhibition reaches its midpoint.

Each structure is given as a SMILES string. The source made the active and inactive calls.

Experiment [1] is described as follows: suppression of NO production in INS-1E cells – cell-based, Griess absorbance, dry powder, set 3, dose response (AID 488870). The class given is functional. As to conditions: Rattus norvegicus.
The subject of experiment [2] is INS1. The experiment is described as follows: suppression of NO production in INS-1E cells – cell-based, Griess absorbance, dry powder, set 2, dose response (AID 488868). Format: functional. As to conditions: Rattus norvegicus. (In general: Nitrite, measured by Griess reagent, commonly stands in for NO production.)
For experiment [3], the system named is INS1. The experiment is described as follows: beta-cell survival under cytokine stress – INS-1E, ATP luminescence, dry powder, dose response (AID 488844). Format: functional, cell-based. Conditions: Rattus norvegicus.
Experiment [4] has as its target Tyrosine-protein kinase Fyn (Homo sapiens, UniProt P06241). The class given is functional.
In experiment [5] the target is Tyrosine-protein kinase Lck (Homo sapiens, UniProt P06239). The class given is functional.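 Note: lck was assayed as one member of a kinase panel.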
The target of experiment [6] is Proto-oncogene tyrosine-protein kinase Src (Homo sapiens, UniProt P12931). The class given is functional.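 Note: SRC entry within a kinome-wide kinase profiling panel.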
The target of experiment [7] is Macrophage colony-stimulating factor 1 receptor (Homo sapiens, UniProt P07333). The class given is functional.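 Note: value comes from the Navigating the Kinome screening panel, CSF1R member.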
Experiment [8] concerns the target Vascular endothelial growth factor receptor 3 (Homo sapiens, UniProt P35916). The class given is functional.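 Note: value from a kinome-wide profiling panel, with FLT4 as the panel member.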
Experiment [9] deals with Tyrosine-protein kinase Blk (Homo sapiens, UniProt P51451). The class given is functional.
Experiment [10] concerns the target T1, Receptor-type tyrosine-protein kinase FLT3 (Homo sapiens, UniProt P36888).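 Note: FLT3 was tested as one member of a kinome-wide kinase panel.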
T1 sequence (P36888 whole entry): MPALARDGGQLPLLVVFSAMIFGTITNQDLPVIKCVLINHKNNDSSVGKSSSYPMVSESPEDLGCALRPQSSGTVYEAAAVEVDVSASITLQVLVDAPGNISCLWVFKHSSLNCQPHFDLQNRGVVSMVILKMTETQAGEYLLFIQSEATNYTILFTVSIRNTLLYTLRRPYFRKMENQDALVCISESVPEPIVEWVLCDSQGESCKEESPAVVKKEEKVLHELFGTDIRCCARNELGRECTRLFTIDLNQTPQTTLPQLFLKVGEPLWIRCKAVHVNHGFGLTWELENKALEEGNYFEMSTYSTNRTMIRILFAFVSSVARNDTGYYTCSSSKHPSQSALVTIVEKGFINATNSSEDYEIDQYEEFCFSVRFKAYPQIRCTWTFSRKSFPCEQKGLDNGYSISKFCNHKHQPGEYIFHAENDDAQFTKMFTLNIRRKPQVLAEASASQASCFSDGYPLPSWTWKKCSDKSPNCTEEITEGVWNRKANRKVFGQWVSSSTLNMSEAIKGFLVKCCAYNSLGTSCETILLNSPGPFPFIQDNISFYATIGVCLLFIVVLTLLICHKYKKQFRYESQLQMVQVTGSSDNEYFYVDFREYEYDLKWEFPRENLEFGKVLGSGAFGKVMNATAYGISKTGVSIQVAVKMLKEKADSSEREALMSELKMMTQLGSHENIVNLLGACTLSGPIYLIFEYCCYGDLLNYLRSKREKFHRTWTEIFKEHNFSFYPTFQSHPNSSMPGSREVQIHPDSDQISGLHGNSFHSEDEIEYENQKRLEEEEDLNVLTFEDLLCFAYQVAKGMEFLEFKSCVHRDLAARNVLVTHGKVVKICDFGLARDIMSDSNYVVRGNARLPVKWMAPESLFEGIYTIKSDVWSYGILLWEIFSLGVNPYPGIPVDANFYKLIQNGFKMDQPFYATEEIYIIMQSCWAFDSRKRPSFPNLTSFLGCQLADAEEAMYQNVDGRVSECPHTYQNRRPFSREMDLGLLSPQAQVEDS
Format: functional.

Experiment [11] has as its target Tyrosine-protein kinase Lyn (Homo sapiens, UniProt P07948). The class given is functional.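 Note: lyn as one member of a kinase panel.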
Experiment [12] deals with Vascular endothelial growth factor receptor 2 (Homo sapiens, UniProt P35968). The class given is functional.
The target in experiment [13] is Mast/stem cell growth factor receptor Kit (Homo sapiens, UniProt P10721). The class given is functional.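 Note: KIT entry within a kinase panel assay.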
Experiment [14] addresses Vascular endothelial growth factor receptor 1 (Homo sapiens, UniProt P17948). Format: functional.
Experiment [15] concerns the target Tyrosine-protein kinase ABL1 (Homo sapiens, UniProt P00519). Format: functional.
Experiment [16] has as its system HEK293. The experiment is described as follows: optical interference in Abeta FP readout, dose response, artefact control for IDE activator project, biochemical, fluorescence polarization (AID 588442). Format: functional, cell-based. Conditions: Homo sapiens. On the technique in general: Polarisation of emitted light reports the rotation of a fluorescent probe.
Experiment [17] has as its target T2, Mannose-6-phosphate isomerase (Homo sapiens, UniProt P34949).
T2 sequence (P34949 whole entry): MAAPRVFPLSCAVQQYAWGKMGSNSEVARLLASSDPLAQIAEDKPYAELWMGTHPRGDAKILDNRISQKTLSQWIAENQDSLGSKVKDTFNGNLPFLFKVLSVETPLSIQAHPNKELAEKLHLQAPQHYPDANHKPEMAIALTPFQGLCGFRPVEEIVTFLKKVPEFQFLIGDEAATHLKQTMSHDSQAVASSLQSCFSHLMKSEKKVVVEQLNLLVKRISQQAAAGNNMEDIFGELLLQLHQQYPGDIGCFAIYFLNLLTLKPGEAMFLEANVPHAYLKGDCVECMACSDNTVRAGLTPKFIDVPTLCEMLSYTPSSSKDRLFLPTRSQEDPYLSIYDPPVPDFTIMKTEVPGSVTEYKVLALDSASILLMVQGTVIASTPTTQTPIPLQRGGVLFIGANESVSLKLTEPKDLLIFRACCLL
The experiment is described as follows: MPI inhibition at elevated mannose 6-phosphate – biochemical, fluorescence intensity, high mannose 6-phosphate, primary screen (AID 1220).

Experiment [18] addresses T3, Insulin-degrading enzyme (Homo sapiens, UniProt P14735).
T3 sequence (P14735 whole entry): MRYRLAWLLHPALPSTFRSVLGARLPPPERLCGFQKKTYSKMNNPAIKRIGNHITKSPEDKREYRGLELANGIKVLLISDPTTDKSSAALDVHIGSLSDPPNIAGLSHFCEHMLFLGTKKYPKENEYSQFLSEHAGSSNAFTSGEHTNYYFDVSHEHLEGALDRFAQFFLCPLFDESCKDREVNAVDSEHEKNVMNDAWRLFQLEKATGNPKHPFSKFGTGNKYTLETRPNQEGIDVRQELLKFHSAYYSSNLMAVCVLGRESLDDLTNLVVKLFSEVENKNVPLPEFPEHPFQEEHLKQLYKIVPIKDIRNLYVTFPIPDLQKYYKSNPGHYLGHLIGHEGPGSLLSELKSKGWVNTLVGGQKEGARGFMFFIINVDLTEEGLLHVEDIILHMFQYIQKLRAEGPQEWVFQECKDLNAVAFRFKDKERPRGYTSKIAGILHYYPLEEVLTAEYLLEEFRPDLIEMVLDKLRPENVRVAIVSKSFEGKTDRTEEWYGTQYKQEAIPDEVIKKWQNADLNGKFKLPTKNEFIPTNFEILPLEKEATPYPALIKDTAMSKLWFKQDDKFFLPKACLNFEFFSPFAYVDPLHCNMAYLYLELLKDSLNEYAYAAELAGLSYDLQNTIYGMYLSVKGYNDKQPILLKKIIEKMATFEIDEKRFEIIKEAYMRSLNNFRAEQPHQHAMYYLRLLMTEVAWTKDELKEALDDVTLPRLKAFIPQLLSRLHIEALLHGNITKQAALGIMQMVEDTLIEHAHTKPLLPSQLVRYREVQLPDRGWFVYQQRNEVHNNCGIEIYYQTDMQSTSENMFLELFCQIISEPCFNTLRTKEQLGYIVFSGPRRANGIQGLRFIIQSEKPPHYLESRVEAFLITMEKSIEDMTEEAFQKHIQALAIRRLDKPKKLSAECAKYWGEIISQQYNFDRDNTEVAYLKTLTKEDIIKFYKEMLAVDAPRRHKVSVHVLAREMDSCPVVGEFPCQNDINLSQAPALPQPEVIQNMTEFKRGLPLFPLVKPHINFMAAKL
The experiment is described as follows: cellular IDE activation of Abeta substrate cleavage – fluorescence polarization, HEK cells, dose response (AID 588439). The class given is functional, cell-based.

For experiment [19], the target named is T3, Insulin-degrading enzyme. In words: recombinant IDE activation, cell-free – biochemical, fluorescence polarization, counter-screen for IDE activator project, dose response (AID 588681).
In experiment [20] the test system is HEK293. The experiment is described as follows: membrane integrity loss in HEK cells – cell-based, fluorescence, cytotoxicity control for IDE activator project, dose response (AID 588440).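 Note: cytotoxicity by LDH release measuring loss of membrane integrity.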 Format: functional. As to conditions: Homo sapiens.

Chain of Proto-oncogene tyrosine-protein kinase Src (P12931 2-536 limits assumed): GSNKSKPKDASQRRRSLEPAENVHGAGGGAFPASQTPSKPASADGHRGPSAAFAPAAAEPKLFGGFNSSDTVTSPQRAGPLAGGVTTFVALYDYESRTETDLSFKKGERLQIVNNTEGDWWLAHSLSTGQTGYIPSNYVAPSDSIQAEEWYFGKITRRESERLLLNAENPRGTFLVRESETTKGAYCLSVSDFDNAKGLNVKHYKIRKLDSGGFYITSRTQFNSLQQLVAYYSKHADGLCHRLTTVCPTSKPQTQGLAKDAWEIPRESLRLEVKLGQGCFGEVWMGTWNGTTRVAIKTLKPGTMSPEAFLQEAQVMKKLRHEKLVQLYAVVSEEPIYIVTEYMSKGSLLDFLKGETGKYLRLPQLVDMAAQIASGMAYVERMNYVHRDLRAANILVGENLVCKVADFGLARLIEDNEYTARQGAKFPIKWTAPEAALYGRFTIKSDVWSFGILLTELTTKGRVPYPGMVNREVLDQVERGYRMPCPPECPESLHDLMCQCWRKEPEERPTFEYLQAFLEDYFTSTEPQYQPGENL
Chain of Vascular endothelial growth factor receptor 1 (P17948 whole entry): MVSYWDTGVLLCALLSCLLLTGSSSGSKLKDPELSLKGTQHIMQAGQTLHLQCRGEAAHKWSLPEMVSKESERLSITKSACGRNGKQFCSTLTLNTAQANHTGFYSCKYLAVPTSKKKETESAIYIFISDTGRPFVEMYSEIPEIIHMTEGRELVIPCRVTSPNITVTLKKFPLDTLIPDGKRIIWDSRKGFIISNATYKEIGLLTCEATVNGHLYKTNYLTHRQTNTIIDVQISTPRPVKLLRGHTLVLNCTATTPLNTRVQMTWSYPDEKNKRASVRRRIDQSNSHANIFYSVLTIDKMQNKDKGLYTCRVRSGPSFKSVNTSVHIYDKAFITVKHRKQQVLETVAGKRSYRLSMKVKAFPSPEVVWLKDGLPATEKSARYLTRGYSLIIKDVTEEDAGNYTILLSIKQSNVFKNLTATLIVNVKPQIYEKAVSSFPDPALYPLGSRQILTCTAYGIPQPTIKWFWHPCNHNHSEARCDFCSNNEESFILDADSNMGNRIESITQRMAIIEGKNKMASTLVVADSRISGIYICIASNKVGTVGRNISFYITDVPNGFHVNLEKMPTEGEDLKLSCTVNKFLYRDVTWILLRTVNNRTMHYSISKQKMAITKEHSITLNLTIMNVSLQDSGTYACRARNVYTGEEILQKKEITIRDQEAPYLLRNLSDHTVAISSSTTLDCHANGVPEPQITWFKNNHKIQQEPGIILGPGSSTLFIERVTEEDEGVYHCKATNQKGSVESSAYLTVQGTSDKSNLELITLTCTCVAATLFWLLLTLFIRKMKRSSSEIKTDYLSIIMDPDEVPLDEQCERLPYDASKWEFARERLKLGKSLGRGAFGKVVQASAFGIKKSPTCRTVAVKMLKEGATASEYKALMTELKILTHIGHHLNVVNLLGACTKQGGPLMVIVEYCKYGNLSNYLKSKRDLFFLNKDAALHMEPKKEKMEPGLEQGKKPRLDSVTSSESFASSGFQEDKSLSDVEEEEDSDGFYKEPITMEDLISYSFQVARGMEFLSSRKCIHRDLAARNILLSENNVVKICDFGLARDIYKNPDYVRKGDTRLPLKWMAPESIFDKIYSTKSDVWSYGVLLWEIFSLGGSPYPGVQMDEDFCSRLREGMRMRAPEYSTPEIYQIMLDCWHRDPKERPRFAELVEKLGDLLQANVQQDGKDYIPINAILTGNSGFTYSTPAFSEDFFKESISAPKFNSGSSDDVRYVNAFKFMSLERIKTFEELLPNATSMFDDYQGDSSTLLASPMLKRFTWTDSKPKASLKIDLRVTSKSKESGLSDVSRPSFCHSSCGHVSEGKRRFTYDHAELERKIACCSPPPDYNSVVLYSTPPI
Chain of Tyrosine-protein kinase Fyn (P06241 whole entry): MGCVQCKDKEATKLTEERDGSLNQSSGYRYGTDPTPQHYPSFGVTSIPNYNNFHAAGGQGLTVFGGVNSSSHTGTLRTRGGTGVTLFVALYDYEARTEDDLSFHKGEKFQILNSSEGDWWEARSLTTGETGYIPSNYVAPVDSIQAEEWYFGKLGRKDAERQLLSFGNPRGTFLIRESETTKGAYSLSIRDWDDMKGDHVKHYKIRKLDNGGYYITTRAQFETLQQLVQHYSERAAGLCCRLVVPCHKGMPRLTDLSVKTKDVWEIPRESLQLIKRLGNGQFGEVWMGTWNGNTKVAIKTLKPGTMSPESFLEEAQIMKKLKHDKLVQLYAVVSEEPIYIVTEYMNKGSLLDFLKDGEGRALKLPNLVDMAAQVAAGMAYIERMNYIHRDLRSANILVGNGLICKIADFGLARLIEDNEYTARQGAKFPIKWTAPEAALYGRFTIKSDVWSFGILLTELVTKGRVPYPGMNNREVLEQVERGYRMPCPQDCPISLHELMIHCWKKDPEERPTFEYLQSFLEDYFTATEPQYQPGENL
Chain of Tyrosine-protein kinase Lck (P06239 whole entry): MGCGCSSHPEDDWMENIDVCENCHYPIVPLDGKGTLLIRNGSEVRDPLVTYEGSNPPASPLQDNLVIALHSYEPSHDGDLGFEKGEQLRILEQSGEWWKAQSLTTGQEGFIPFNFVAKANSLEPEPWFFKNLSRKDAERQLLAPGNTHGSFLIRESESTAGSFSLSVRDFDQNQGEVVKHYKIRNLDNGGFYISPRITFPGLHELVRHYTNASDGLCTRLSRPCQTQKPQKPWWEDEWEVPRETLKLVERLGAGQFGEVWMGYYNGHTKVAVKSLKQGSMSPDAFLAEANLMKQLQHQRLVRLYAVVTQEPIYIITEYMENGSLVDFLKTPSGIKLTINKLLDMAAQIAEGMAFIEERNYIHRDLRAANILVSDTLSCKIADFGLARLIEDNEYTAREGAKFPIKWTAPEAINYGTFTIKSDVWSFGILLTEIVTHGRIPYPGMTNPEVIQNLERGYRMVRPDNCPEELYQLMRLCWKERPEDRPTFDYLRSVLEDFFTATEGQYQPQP
Chain of Vascular endothelial growth factor receptor 2 (P35968 whole entry): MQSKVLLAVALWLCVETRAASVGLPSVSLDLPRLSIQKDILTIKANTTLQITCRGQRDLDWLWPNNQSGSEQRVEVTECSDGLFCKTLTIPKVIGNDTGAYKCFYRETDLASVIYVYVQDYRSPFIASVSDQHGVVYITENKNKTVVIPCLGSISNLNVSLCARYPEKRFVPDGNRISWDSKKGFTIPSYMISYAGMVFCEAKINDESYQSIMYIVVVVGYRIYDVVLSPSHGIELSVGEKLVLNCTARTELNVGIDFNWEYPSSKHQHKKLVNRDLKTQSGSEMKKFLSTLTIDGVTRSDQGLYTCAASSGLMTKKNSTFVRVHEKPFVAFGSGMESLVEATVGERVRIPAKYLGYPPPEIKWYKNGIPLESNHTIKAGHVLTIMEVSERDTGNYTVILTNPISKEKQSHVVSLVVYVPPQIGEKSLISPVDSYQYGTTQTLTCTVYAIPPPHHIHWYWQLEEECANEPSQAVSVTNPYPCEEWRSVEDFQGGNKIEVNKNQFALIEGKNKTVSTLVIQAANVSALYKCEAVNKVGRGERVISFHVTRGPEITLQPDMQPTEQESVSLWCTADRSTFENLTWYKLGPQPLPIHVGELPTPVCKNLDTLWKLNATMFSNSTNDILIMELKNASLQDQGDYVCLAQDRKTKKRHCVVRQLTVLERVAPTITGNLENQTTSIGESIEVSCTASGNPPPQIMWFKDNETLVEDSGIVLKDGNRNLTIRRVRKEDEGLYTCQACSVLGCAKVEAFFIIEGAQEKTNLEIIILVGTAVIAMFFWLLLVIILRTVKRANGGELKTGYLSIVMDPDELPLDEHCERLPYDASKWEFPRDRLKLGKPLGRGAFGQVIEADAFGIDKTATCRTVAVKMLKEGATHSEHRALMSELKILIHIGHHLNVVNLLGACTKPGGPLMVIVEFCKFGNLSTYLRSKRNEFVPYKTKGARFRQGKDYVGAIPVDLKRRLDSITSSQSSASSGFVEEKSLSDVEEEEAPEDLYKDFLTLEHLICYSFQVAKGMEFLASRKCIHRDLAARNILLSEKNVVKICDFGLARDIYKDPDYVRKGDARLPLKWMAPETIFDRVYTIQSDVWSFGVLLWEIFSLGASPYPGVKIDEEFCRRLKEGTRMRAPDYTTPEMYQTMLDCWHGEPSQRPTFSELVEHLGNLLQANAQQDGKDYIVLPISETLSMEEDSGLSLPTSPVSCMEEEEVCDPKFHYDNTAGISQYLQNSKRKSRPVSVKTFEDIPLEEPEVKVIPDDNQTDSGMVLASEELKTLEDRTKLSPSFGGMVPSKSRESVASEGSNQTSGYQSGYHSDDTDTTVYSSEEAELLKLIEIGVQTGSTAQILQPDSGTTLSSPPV
Chain of Tyrosine-protein kinase Blk (P51451 whole entry): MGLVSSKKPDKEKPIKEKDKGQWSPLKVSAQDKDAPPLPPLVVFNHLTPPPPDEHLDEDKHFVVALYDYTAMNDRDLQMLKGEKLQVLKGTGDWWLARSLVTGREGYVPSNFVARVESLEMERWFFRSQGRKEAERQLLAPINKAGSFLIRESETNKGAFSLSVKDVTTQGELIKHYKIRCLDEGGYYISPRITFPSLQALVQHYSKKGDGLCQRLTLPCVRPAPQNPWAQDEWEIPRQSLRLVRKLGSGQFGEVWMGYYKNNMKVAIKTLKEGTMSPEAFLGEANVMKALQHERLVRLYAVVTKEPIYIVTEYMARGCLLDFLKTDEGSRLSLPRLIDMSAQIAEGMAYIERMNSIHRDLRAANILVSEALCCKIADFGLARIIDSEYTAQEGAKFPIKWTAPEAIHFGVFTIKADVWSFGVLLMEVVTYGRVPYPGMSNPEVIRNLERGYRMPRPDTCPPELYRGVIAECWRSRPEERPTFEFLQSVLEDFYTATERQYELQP

As to `C[C@@H]1CN([C@H](C)CO)C(=O)c2cccc(NC(=O)Nc3cccc4ccccc34)c2O[C@H]1CN(C)S(=O)(=O)c1ccc(Cl)cc1`, the AC50 in experiment [1] is 112000 nM (active); in the experiment on INS1 [2], 48500 nM (active); in the experiment on INS1 [3], 187000 nM (active).
On to `COc1ccc(-c2ccc(NC(=O)Nc3ccc(OC(F)(F)F)cc3)cc2)c2c(N)noc12`, for which the Ki was 79.4 nM (active) in [4]; 31.6 nM (active) in [5]; 126 nM (active) in experiment [6]; 5.01 nM (active) in experiment [7]; 12.6 nM (active) in experiment [8]; 15.8 nM (active) in experiment [9]. The inhibitory constant (Ki) in experiment [10] was 1.26 nM (active); in experiment [11] it was 63.1 nM (active); in [12], 1 nM (active); in experiment [13] it was 1.58 nM (active); in experiment [14], 0.631 nM (active); in experiment [15], 200 nM (active).
`O=c1oc2cc(O)ccc2cc1-c1nc2c(s1)CCc1ccccc1-2`: the EC50 is 4600 nM (active) in the experiment on HEK293 [16], > 54700 nM (inactive) at Insulin-degrading enzyme [18] and > 54700 nM (inactive) at Insulin-degrading enzyme [19]. The half-maximal inhibitory concentration (IC50) in experiment [17] is > 50000 nM (not active); with HEK293 [20], > 89200 nM (inactive).
